US12600732B2, “Bifunctional compounds for degrading BTK via ubiquitin proteosome pathway” (NURIX THERAPEUTICS, INC., priority 2019, dated 2026)
Where two headings read alike, the source gives them in different places.

Assays:
[1] = test system: B cell receptor (BCR) signaling; assay: B cell activation assay (flow cytometry), mouse B cells; type: cell-based; conditions: treatment 4 h, IgM stimulation 18 h
Experimental: Compound was present throughout the stimulation. Cells were stained with Live/Dead dye (Fisher L34976) and then fluorophore-conjugated antibodies against CD20 (Biolegend 302330), CD3 (BD Pharmingen 557705), CD86 (Biolegend 305416) and CD69 (Biolegend 310906). Stained cells were fixed in PFA and run on an Attune N×T Acoustic Focusing Flow Cytometer (Thermo-Fisher A29004), and data was analyzed using FlowJo (v10.5.3) and GraphPad Prism (v7.00) software. Single live lymphocytes were gated for B cells (CD20+CD3−) and T cells (CD3+CD20−), and the geometric mean fluorescence intensity (MFI) of CD86 and CD69 was calculated for each population. The MFI of the unstimulated sample was used to quantify baseline activation.
This example evaluates whether CTM treatment affects B cell receptor (BCR) signaling. BTK is activated downstream of the B cell receptor and leads to upregulation of activation markers CD86 and CD69 on the surface of B cells.

BTK = target: T1, BTK (Mus musculus, UniProt P35991); assay: In vivo degradation of BTK in mouse PD experiments with oral dosing; conditions: 24 h
T1 construct: from tissue; host or cells: mouse blood B cells / splenocytes (CD-1 or BALB/c)
Outline: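 CD-1 or BALB/c mice dosed by oral gavage, screens at 90 mg/kg for 6 h, later at lower doses/longer times. Blood or splenocyte BTK measured by intracellular flow cytometry (or HTRF); % degradation from B-cell minus T-cell BTK geometric MFI, relative to vehicle.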

[2] = PK data for BTK CTMs (in vivo plasma concentrations); conditions: Mouse Balb/c; for Vd: read-out: Volume of Distribution
Source text: The present example evaluates in vivo plasma concentrations of BTK CTMs to develop PK-PD-efficacy relationship and predict human exposure.

TMD8 cells = assay: Cell viability assay (CellTiter-Glo), TMD8 cells; conditions: for EC50: Homo sapiens, TMD8, 72 h; for EMAX (% viable cells): TMD8 cells, treatment time 72 h
TMD8 C481S cells = assay: Cell viability assay (CellTiter-Glo), TMD8 C481S cells; conditions: for EC50: Homo sapiens, TMD8, 72 h; for EMAX (% viable cells): TMD8 C481S cells, treatment time 72 h
BTK C481S = BTK C481S (Homo sapiens, UniProt Q06187, C481S); assay: BTK degradation (Total BTK HTRF) in TMD8 cells expressing BTK-C481S; type: cell-based; parameters: endogenous in cells; host or cells: TMD8 BTK-C481S (clone2C3), Cas9 RNP knock-in; conditions: TMD8 BTK-C481S (clone2C3) cells, treatment time 4 h
Experimental: BTK levels were determined using Cisbio Total-BTK HTRF (Homologous Time-Resolved Fluorescence) kit (63ADK064PEG) according to the manufacturer's protocol. Briefly, cells were incubated in 1× supplied lysis buffer for 30 minutes. In an opaque white low volume 96-well plate (Cisbio, 66PL96005), cell lysate was combined with two different specific BTK antibodies, one conjugated with Eu^3+-Cryptate FRET donor and one conjugated with d2 FRET acceptor. Assay controls include wells containing cell lysate with only the Eu^3+-Cryptate FRET donor antibody and wells containing both HTRF antibodies and lysis buffer without cells or control lysate provided by Cisbio. HTRF ratio was calculated as (acceptor signal at 665 nm/donor signal at 620 nm)×10^4. Background HTRF levels were determined from the control well containing the donor, but no acceptor, antibody. Background HTRF levels were subtracted from all samples. Readouts were reported as HTRF levels relative to HTRF levels of DMSO-treated cells. Four-parameter non-linear regressions were performed in GraphPad Prism 7.02 to obtain DC50 values.
BTK Degradation (Total BTK HTRF) at Four Hours in TMD8 Cells Expressing BTK-C481S
This example evaluates the potency of CTM in degrading […]. The BTK binding moieties utilized in CTMs bind to the BTK active site. This example evaluates whether the active site mutation C481S affects CTM-induced degradation of BTK.

[3] = oral dose 30 mg/kg, splenocytes, HTRF
[4] = oral dose 30 mg/kg, blood, flow cytometry

Compound	EC50 ([1]; read-out: CD69 EC50)	EC50 ([1]; read-out: CD86 EC50)	% BTK Remaining (BTK; [3])	AUC ([2]; 1 mg/kg IV)	clearance ([2]; 1 mg/kg IV)	Vd ([2]; 1 mg/kg IV)	AUC ([2]; 10 mg/kg PO)	bioavailability ([2]; 10 mg/kg PO)	EC50 (TMD8 cells)	EMAX (% viable cells) (TMD8 cells)	EC50 (TMD8 C481S cells)	EMAX (% viable cells) (TMD8 C481S cells)	DC50 (BTK C481S)	% BTK Remaining (BTK; [4])	% BTK Remaining (BTK; oral dose 0.3 mg/kg, blood, flow cytometry)	% BTK Remaining (BTK; oral dose 3 mg/kg, blood, flow cytometry)
NC(=O)c1ncc(N2CCC[C@@H](N3CCOC3=O)C2)nc1Nc1ccc(C2CCN(C[C@H]3CCN(c4ccc5c(c4)C(=O)N(C4CCC(=O)NC4=O)C5=O)C3)CC2)cc1 (stereo partly drawn) [Compound 73]	~0.2 nM	0.2 nM	26%	600 nM·h	2.03 L/h/kg	3.4 L/kg	2900 nM·h	47%	0.004 nM	25%	0.054 nM	19%	1.2 nM			
CN1CCN([C@H]2CCCN(c3cnc(C(N)=O)c(Nc4ccc(C5CCN(CC6CCN(c7ccc(NC8CCC(=O)NC8=O)cn7)CC6)CC5)cc4)n3)C2)C1=O (stereo partly drawn) [Compound 129]									3.17 nM	16%	4.36 nM	14%	5.3 nM	16%		
CN1CCN([C@@H]2CCCN(c3cnc(C(N)=O)c(Nc4ccc(C5(C)CCN(C[C@H]6CCN(c7ccc8c(c7)C(=O)N(C7CCC(=O)NC7=O)C8=O)C6)CC5)cc4)n3)C2)C1=O (stereo partly drawn) [Compound 71]	1 nM	2 nM	27%													
NC(=O)c1ncc(N2CCCCC2)nc1Nc1ccc(C2CCN(CC3CCN(c4ccc5c(=O)n(C6CCC(=O)NC6=O)ccc5c4)CC3)CC2)cc1 (stereo not drawn) [Compound 133]									6.98 nM	15%	6.83 nM	9%	8.3 nM	10%		
CN1CCN([C@@H]2CCCN(c3cnc(C(N)=O)c(Nc4ccc(C5CN(CC6CCN(c7ccc8c(=O)n(C9CCC(=O)NC9=O)ccc8c7)CC6)C5)cc4)n3)C2)C1=O (stereo partly drawn) [Compound 69]	0.1 nM	0.3 nM	33%	680 nM·h	1.88 L/h/kg	2.2 L/kg	78 nM·h	1%					0.8 nM	30%	112%	43%
CN1CCN([C@@H]2CCCN(c3cnc(C(N)=O)c(Nc4ccc(C5CCN(CC6CCN(c7ccc(NC8CCC(=O)NC8=O)nc7)CC6)CC5)cc4)n3)C2)C1=O (stereo partly drawn) [Compound 166]			19%										8.1 nM			
O=C(c1ccc(Oc2ccccc2)cc1Cl)c1c[nH]c2ncnc(N[C@@H]3CC[C@@H](CO)OC3)c12 [ARQ531]	50 nM	70 nM							100 nM	16%	100 nM	17%				
